Data on 23 compounds can be found in patent publication US7462615B2, “Inhibitors of cysteine proteases, the pharmaceutical compositions thereof and their therapeutic applications” (Hybrigenics SA, priority 2005, dated 2008).

“And” between values parts separate entries of the source, which are not always exact repeats. Identical values can stand only once.

One experiment deals with T1, Caspase 3 (Homo sapiens, UniProt P42574).
T1 sequence (P42574 29-175 limits assumed): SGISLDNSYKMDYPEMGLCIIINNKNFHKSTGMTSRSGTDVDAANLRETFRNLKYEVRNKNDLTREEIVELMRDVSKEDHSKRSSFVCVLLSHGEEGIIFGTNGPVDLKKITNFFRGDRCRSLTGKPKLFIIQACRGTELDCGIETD
T1 sequence (P42574 176-277 limits assumed): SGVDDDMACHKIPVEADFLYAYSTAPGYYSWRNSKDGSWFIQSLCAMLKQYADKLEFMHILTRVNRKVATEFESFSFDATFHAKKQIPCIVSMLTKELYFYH
The experiment in a line: Caspase 3 Activity Assay. The conditions noted are these: 500 nM Ac-DEVD-AMC; 3.2 nM enzyme; pre-incubated 30 minutes at 25° C., 60 minutes at 37° C.; sigmoidal fit; read-out: Caspase 3 (Inhibition of cysteine protease activities). Format: biochemical. The procedure:
Caspase 3 was diluted in Caspase B buffer (100 mM Hepes pH 7.5; 10% sucrose; 0.1% CHAPS). Compounds stocks (100 mM) were stored at −20° C. in DMSO. Compounds were tested at the following final concentrations: 100 μM; 33.3 μM; 11.1 μM; 3.7 μM; 1.23 μM; 412 nM; 137 nM; 45.7 nM; 15.2 nM; 5 nM. Reactions were performed as duplicates in Black LJL 96 well plates (HE microplates; Molecular Devices; 20 μl final reaction volume). The substrate concentration for caspase 3 specificity assay was 500 nM (Ac-DEVD-AMC; Promega). The concentration of the enzyme (Caspase 3) in specificity assays was 3.2 nM. The concentrations were determined in order to perform specificity assays under initial velocities at fixed substrate concentration. Compounds were pre-incubated with enzymes for 30 minutes at 25° C. Reactions were initiated by addition of substrate to the plates containing the enzymes (+/− compounds) diluted in assay buffer. Reactions were incubated for 60 minutes at 37° C. Reactions were stopped by adding acetic acid (100 mM final) Readings were performed on a Pherastar Fluorescent Reader (BMG). δ Emission 380 nm; δ Excitation=460 nm. Data (mean values +/− standard deviation) were analyzed as % of control (no compound) and plotted as percentage versus the Log of the compound concentration using GraphPad (Prism). Data were fitted to a sigmoidal model (variable slope).

A further experiment deals with Cathepsin B (Homo sapiens, UniProt P07858). The experiment in a line: Cathepsin B Activity Assay. In kind it is biochemical. The conditions noted are these: 36 μM z-RR-AMC; 3.6 nM enzyme; pre-incubated 30 minutes at 25° C., 60 minutes at 37° C.; sigmoidal fit; read-out: Cathepsin B (Inhibition of cysteine protease activities). The procedure: Cathepsin B was diluted in Cathepsin B buffer (20 mM Tris HCl pH 6.8; 1 mM EDTA; 1 mM DTT). Compounds stocks (100 mM) were stored at −20° C. in DMSO. Compounds were tested at the following final concentrations: 100 μM; 33.3 μM; 11.1 μM; 3.7 μM; 1.23 μM; 412 nM; 137 nM; 45.7 nM; 15.2 nM; 5 nM. Reactions were performed as duplicates in Black LJL 96 well plates (HE microplates; Molecular Devices; 20 μl final reaction volume). The substrate concentration for cathepsin B specificity assay was 36 μM (z-RR-AMC; Calbiochem). The concentration of the enzyme (Cathepsin B) in specificity assays was 3.6 nM. The concentrations were determined in order to perform specificity assays under initial velocities at fixed substrate concentration. Compounds were pre-incubated with enzymes for 30 minutes at 25° C. Reactions were initiated by addition of substrate to the plates containing the enzymes (+/− compounds) diluted in assay buffer. Reactions were incubated for 60 minutes at 37° C. Reactions were stopped by adding acetic acid (100 mM final). Readings were performed on a Pherastar Fluorescent Reader (BMG). δ […]. Data (mean values +/− standard deviation) were analyzed as % of control (no compound) and plotted as percentage versus the Log of the compound concentration using GraphPad (Prism). Data were fitted to a sigmoidal model (variable slope).

Experiment [1] concerns PC-3 prostate cancer cells. The experiment in a line: PC3 Cell Viability and Proliferation Assay. In kind it is cell-based. The note with it: Homo sapiens, PC-3, 72 hours, MTS, mean of three independent experiments, read-out: PC3 GI50 D3. The procedure: PC-3 prostate cancer cells were obtained from ATCC, and maintained in F-12K medium containing 7% FBS and 1% penicillin/streptomycin. Cells were incubated at 37° C. in a humidified atmosphere containing 5% CO2.
Cell viability was assayed using the MTS technique in 96-well culture plates (CellTiter 96® Aqueous Non-Radioactive Cell Proliferation Assay, Promega) according to the manufacturer's instructions. MTS (3-(4,5-dimethyl-thiazol-2-yl)-5-(3-carboxymethoxyphenyl)-2-(4-sulfophenyl)-2H-tetrazolium) is a MTT-derived tetrazolium that is reduced in metabolically active cells into a soluble, cell-permeant formazan. The amount of formazan, detected by its absorbance at 492 nm is proportional to the number of living, metabolically active cells.
2×10^3 PC3 cells were seeded per well. 24 hours later, the medium was changed and the cells treated in triplicate with the following concentrations of each compound: 10 μM-3.33 μM-1.11 μM-370 nM-123 nM-41 nM-14 nM and 5 nM. The compounds were diluted in 100% DMSO, whose final concentration on cells was kept at 0.5%.
(§1) Cells were incubated with the compounds for 72 hours, and their viability then assayed by the addition of MTS for 2 hours. Absorbance at 492 nm was measured directly from the 96-well culture plates. GI50 (Growth Inhibition 50) concentrations for each compound were calculated using a sigmoidal variable slope fit (Prism 4.0, Graphpad Softwares). Values represent mean of three independent experiments.

Experiment [2] concerns HCT116 colon cancer cells. The experiment in a line: HCT116 Cell Viability and Proliferation Assay. Format: cell-based. The conditions noted are these: Homo sapiens, HCT-116, 72 hours, MTS, mean of three independent experiments, read-out: HCT116 GI50 D3. The procedure: HCT116 colon cancer cells were obtained from ATCC (American Type Culture Collection), and maintained in Mc Coy's 5A medium containing 10% FBS, 3 mM glutamine and 1% penicillin/streptomycin. Cells were incubated at 37° C. in a humidified atmosphere containing 5% CO2.
Cell viability was assayed using the MTS technique in 96-well culture plates (CellTiter 96® Aqueous Non-Radioactive Cell Proliferation Assay, Promega) according to the manufacturer's instructions. MTS (3-(4,5-dimethylthiazol-2-yl)-5(3-carboxymethoxyphenyl)-2-(4-sulfophenyl)-2H-tetra-zolium) is a MTT-derived tetrazolium that is reduced in metabolically active cells into a soluble, cell-permeant formazan. The amount of formazan, detected by its absorbance at 492 nm is proportional to the number of living, metabolically active cells.
10^3 HCT116 cells were seeded per well. 24 hours later, the medium was changed and the cells treated in triplicate with the following concentrations of each compound: 10 μM-3.33 μM-1.11 μM-370 nM-123 nM-41 nM-14 nM and 5 nM. The compounds were diluted in 100% DMSO, whose final concentration on cells was kept at 0.5%.
as §1

With `Cc1nnc2nc3c(nn12)C(=O)c1ccccc1-3` [Example 1b/A, 1-Methyl-2,3,4,10,10a-pentaaza-cyclopenta[b]fluoren-9-one], the IC50 at Caspase 3 came out at 4100 nM; on Cathepsin B, 24000 nM.
`Cc1nnc2nc3c(nn12)-c1ccccc1C3=O` [Example 1b/B, 3-Methyl-1,2,3a,4,10-pentaaza-cyclopenta[b]fluoren-9-one]: the IC50 is 424 nM on Caspase 3 and 182 nM at Cathepsin B.
On to `Nc1nnc2nc3c(nn12)C(=O)c1ccccc1-3` [Example 1c/A, 1-Amino-2,3,4,10,10a-pentaaza-cyclopenta[b]fluoren-9-one], for which the IC50 on Caspase 3 was 3700 nM; on Cathepsin B, 5000 nM. For the same compound, the GI50 (commonly the concentration that inhibits growth by half) in experiment [1] was above 10000 nM.
Consider `Nc1nnc2nc3c(nn12)-c1ccccc1C3=O` [Example 1c/B, 3-Amino-1,2,3a,4,10-pentaaza-cyclopenta[b]fluoren-9-one], for which the IC50 at Cathepsin B is 103 nM.
Turning to `CCc1nnc2nc3c(nn12)C(=O)c1ccccc1-3` [Example 1d/A, 1-Ethyl-2,3,4,10,10a-pentaaza-cyclopenta[b]fluoren-9-one], the IC50 at Caspase 3 was 11600 nM.
For the compound `CCc1nnc2nc3c(nn12)-c1ccccc1C3=O` [Example 1d/B, 3-Ethyl-1,2,3a, 4,10-pentaaza-cyclopenta[b]fluoran-9-one], the IC50 was 212 nM and 467 nM on Caspase 3; 150 nM on Cathepsin B.
`CCCc1nnc2nc3c(nn12)C(=O)c1ccccc1-3` [Example 1e/A, 1-Propyl-2,3,4,10,10a-pentaaza-cyclopenta[b]fluoren-9-one]: the IC50 at Caspase 3 is above 100000 nM; at Cathepsin B it was 5410 nM.
The corresponding values for `CCCc1nnc2nc3c(nn12)-c1ccccc1C3=O` [Example 1e/B, 3-Propyl-1,2,3a, 4,10-pentaaza-cyclopenta[b]fluoren-9-one] are 727 nM and 267 nM.
On to `CCCCc1nnc2nc3c(nn12)C(=O)c1ccccc1-3` [Example 1f/A, 1-Butyl-2,3,4,10,10a-pentaaza-cyclopenta[b]fluoren-9-one], for which the IC50 on Caspase 3 was 4600 nM; at Cathepsin B, 6500 nM.
The corresponding values for `CCCCc1nnc2nc3c(nn12)-c1ccccc1C3=O` [Example 1f/B, 3-Butyl-1,2,3a,4,10-pentaaza-cyclopenta[b]fluoren-9-one] are 475 nM and 233 nM.
For the compound `CC(C)Cc1nnc2nc3c(nn12)C(=O)c1ccccc1-3` [Example 1g/A, 1-Isobutyl-2,3,4,10,10a-pentaaza-cyclopenta[b]fluoren-9-one], the IC50 at Caspase 3 is above 100000 nM; at Cathepsin B, 4620 nM.
For `CC(C)Cc1nnc2nc3c(nn12)-c1ccccc1C3=O` [Example 1g/B, 3-Isobutyl-1,2,3a,4,10-pentaaza-cyclopenta[b]fluoren-9-one], the IC50 on Caspase 3 came to 629 nM; at Cathepsin B, 264 nM.
The corresponding values for `O=C1c2ccccc2-c2nc3nnc(CO)n3nc21` [Example 1h/A, 1-Hydroxymethyl-2,3,4,10,10a-pentaaza-cyclopenta[b]fluoren-9-one] are 3900 nM and 30000 nM.
The corresponding values for `O=C1c2ccccc2-c2nn3c(CO)nnc3nc21` [Example 1h/B] are 1020 nM and 547 nM.
As for `COCc1nnc2nc3c(nn12)C(=O)c1ccccc1-3` [Example 1i/A, 1-Methoxymethyl-2,3,4,10,10a-pentaaza-cyclopenta[b]fluoren-9-one], the results for the IC50 on Caspase 3 and at Cathepsin B were 926 nM and 1020 nM, respectively.
For `COCc1nnc2nc3c(nn12)-c1ccccc1C3=O` [Example 1i/B, 3-Methoxymethyl-1,2,3a, 4,10-pentaaza-cyclopenta[b]fluoren-9-one], the IC50 at Caspase 3 is 556 nM; at Cathepsin B, 314 nM.
For `O=C1c2ccccc2-c2nc3nnc(C4CC4)n3nc21` [Example 1j/A, 1-Cyclopropyl-2,3,4,10,10a-pentaaza-cyclopenta[b]fluoren-9-one], the IC50 at Caspase 3 was determined as 1900 nM.
Consider `O=C1c2ccccc2-c2nn3c(C4CC4)nnc3nc21` [Example 1j/B, 3-Cyclopropyl-1,2,3a,4,10-pentaaza-cyclopenta[b]fluoren-9-one], for which the IC50 at Caspase 3 was determined as 188 nM; at Cathepsin B it was 181 nM.
For the compound `O=C1c2ccccc2-c2nc3nnc(Cc4ccccc4)n3nc21` [Example 1k/A, 1-Benzyl-2,3,4,10,10a-pentaaza-cyclopenta[b]fluoren-9-one], the IC50 at Caspase 3 came out at 598 nM.
Consider `O=C1c2ccccc2-c2nn3c(Cc4ccccc4)nnc3nc21` [Example 1k/B, 3-Benzyl-1,2,3a,4,10-pentaaza-cyclopenta[b]fluoren-9-one], for which the figures for the IC50 at Caspase 3 and on Cathepsin B were 164 nM and 363 nM, respectively.
For `Cc1nnc2nc3c(nn12)-c1ccc(Cl)cc1C3=O` [Example 3/B, 7-Chloro-3-methyl-1,2,3a, 4,10-pentaaza-cyclopenta[b]fluoren-9-one], the IC50 at Caspase 3 is 743 nM; at Cathepsin B, 147 nM.
With `Cn1nc2nc3c(nc2n1)-c1ccccc1C3=O` [Example 4a, 2-Methyl-2H-1,2,3,4,10-pentaaza-cyclopenta[b]fluoren-9-one], the GI50 in experiment [1] and in experiment [2] was above 10000 nM each time. In addition, the IC50 at Cathepsin B was above 100000 nM.
Turning to `O=C1c2ccccc2-c2nc3nn(Cc4ccccc4)nc3nc21` [Example 4b, 2-Benzyl-2H-1,2,3,4,10-pentaaza-cyclopenta[b]fluoren-9-one], the GI50 in experiment [1] and in experiment [2] was above 10000 nM in each case.
